Values quoted from earlier work in paper PMC9569971, “New Oxazolo[5,4-d]pyrimidines as Potential Anticancer Agents: Their Design, Synthesis, and In Vitro Biological Activity Research” (International Journal of Molecular Sciences, 2022).
Read-outs that look alike come from different tables or passages of the source.

Tests used:
[1] = tested on: A549; conditions: cited from earlier work
[2] = tested on: HT29; conditions: ref 70; cited from earlier work

In the case of `COc1cc2nccc(Oc3ccc(NC(=O)NC4CC4)c(Cl)c3)c2cc1C(N)=O` [Lenvatinib], the IC50 ([1]; listed as lenvatinib) is listed as “almost no effect”, the IC50 ([1]; ref 69) is listed as “No effect ^f” and the IC50 [2] is listed as 431 µM.
